≈ marks a conversion by molar mass, not a printed value. Read-outs that look alike come from different tables or passages of the source.
Tests used:
[1] = pH of aqueous solution; type: physicochemical; conditions: 100 mg/ml aqueous solution
[2] = physchem; type: physicochemical
Source text: The invention includes within its scope pharmaceutical compositions containing at least one of the above-mentioned antibiotic compounds and a pharmaceutically acceptable carrier. The compositions may also contain other active antibacterial agents. The compositions may be made up in any pharmaceutical form appropriate for the route of administration in question. Such compositions are exemplified by solid compositions for oral administration, such as tablets, capsules, pills, powders and granules; liquid compositions for oral administration such as solutions, suspensions, syrups and elixirs; preparations for parenteral administration such as sterile solutions, suspensions or emulsions; and preparations for topical administration such as gels, creams, ointments or salves. […] In 40% prophylene glycol in water (V/V), the solubility of HPB4 free base is greater than about 200 mg/ml. […] The solubility of HPB4·K is about 300 mg/ml. The solubility of HPB4·2HCl is about 600 mg/ml.
The solubility of the potassium salt is about 300 mg/ml in water.

[3] = test system: S. faecalis (strain 9, Table 2); experiment: mouse protection assay, i.p. infection with S. faecalis, single s.c. dose; type: in vivo; conditions: mice infected with 3.17 LD50's, dosed once subcutaneously one hour after infection
Procedure: (§1) The in vivo activity of the CWI-785 complex and its components and hydrolysis products was confirmed by administering selected CWI-785 antibiotics to mice infected with various gram-positive pathogens. In one representative assay, in which mice infected intraperitoneally with 46.8 LD ₅₀ʹs of S. aureus (strain 1, Tables 1 and 2) were dosed once, subcutaneously one hour after infection, the following ED₅₀ʹs (mg/kg) (the ED₅₀ gives the amount of antibiotic necessary for 50% survival) were observed: CWI-785B: 2.4, CWI-785C: 3.1, CWI-785: 3.8, HPB3: 0.9, vancomycin: 0.7. In a second representative assay carried out as above except that mice were infected with 3.17 LD₅₀ʹs of S. faecalis (strain 9, Table 2), the following ED₅₀ʹs were observed: HPB3 hydrochloride: 1.6, HPB4 hydrochloride: 1.6, vancomycin: 2.2, teicoplanin: 1.3.

[4] = test system: S. aureus (strain 1, Tables 1 and 2); experiment: mouse protection assay, i.p. infection with S. aureus, single s.c. dose; type: in vivo; conditions: mice infected intraperitoneally with 46.8 LD50's, dosed once subcutaneously one hour after infection, 50% survival
Procedure: as §1

For `CNC(C(=O)NC1C(=O)NC(CCSC)C(=O)NC2C(=O)NC3C(=O)NC(C(=O)NC(C(=O)O)c4cc(O)cc(O)c4-c4cc3ccc4O)C(O[C@H]3C[C@@H](N)[C@@H](O)[C@H](C)O3)c3ccc(c(Cl)c3)Oc3cc2cc(c3O)Oc2ccc(cc2)C1O)c1ccc(O)cc1` (some centres unmarked) [HPB4·K], the pH [1] was 9.29, the solubility ([2]; solubility) was about 300 mg/mL (≈ 232 mM) and the solubility ([2]; water, solubility) was about 300 mg/mL (≈ 232 mM).

In the case of `CNC(C(=O)NC1C(=O)NC(CCSC)C(=O)NC2C(=O)NC3C(=O)NC(C(=O)NC(C(=O)O)c4cc(O)cc(O)c4-c4cc3ccc4O)C(O[C@H]3C[C@@H](N)[C@@H](O)[C@H](C)O3)c3ccc(c(Cl)c3)Oc3cc2cc(c3O)Oc2ccc(cc2)C1O)c1ccc(O)cc1` (some centres unmarked) [HPB4·2HCl], the solubility [2] is reported as “about 600 mg/ml”.

Work on `CN[C@H](CC(C)C)C(=O)N[C@H]1C(=O)N[C@@H](CC(N)=O)C(=O)N[C@H]2C(=O)N[C@H]3C(=O)N[C@H](C(=O)N[C@H](C(=O)O)c4cc(O)cc(O)c4-c4cc3ccc4O)[C@H](O)c3ccc(c(Cl)c3)Oc3cc2cc(c3O[C@@H]2O[C@H](CO)[C@@H](O)[C@H](O)[C@H]2O[C@H]2C[C@](C)(N)[C@H](O)[C@H](C)O2)Oc2ccc(cc2Cl)[C@H]1O` [vancomycin, reference compound] yielded an ED50 ([3]; Enterococcus faecalis, sc, 1 h, read-out: ED₅₀) of 2.2 mg/kg and an ED50 ([4]; Staphylococcus aureus, sc, 1 h, read-out: ED₅₀) of 0.7 mg/kg.

`CNC(C(=O)NC1C(=O)NC(CC[S+](C)[O-])C(=O)NC2C(=O)NC3C(=O)NC(C(=O)NC(C(=O)O)c4cc(O)cc(O)c4-c4cc3ccc4O)C(OC3CC(N)C(O)C(C)O3)c3ccc(c(Cl)c3)Oc3cc2cc(c3O)Oc2ccc(cc2)C1O)c1ccc(O)cc1` (centres unmarked) [HPB3] gave an ED₅₀ [4] of 0.9 mg/kg.

Compound `CNC(C(=O)NC1C(=O)NC(CC[S+](C)[O-])C(=O)NC2C(=O)NC3C(=O)NC(C(=O)NC(C(=O)O)c4cc(O)cc(O)c4-c4cc3ccc4O)C(OC3CC(N)C(O)C(C)O3)c3ccc(c(Cl)c3)Oc3cc2cc(c3O)Oc2ccc(cc2)C1O)c1ccc(O)cc1.Cl` (centres unmarked) [HPB3 hydrochloride] has an ED₅₀ [3] of 1.6 mg/kg.

With `CNC(C(=O)NC1C(=O)NC(CCSC)C(=O)NC2C(=O)NC3C(=O)NC(C(=O)NC(C(=O)O)c4cc(O)cc(O)c4-c4cc3ccc4O)C(O[C@H]3C[C@@H](N)[C@@H](O)[C@H](C)O3)c3ccc(c(Cl)c3)Oc3cc2cc(c3O)Oc2ccc(cc2)C1O)c1ccc(O)cc1` (some centres unmarked) [HPB4] the solubility ([2]; 40% peg-400 in water, organic solvent or mixture, solubility) was about 250 mg/mL (≈ 194 mM) and the solubility ([2]; 40% propylene glycol in water, organic solvent or mixture, solubility) was over 200 mg/mL.

`CNC(C(=O)NC1C(=O)NC(CCSC)C(=O)NC2C(=O)NC3C(=O)NC(C(=O)NC(C(=O)O)c4cc(O)cc(O)c4-c4cc3ccc4O)C(OC3CC(N)C(O)C(C)O3)c3ccc(c(Cl)c3)Oc3cc2cc(c3O)Oc2ccc(cc2)C1O)c1ccc(O)cc1.Cl` (centres unmarked) [HPB4 hydrochloride] gave an ED₅₀ [3] of 1.6 mg/kg.
